Patent US4497806A, “Triorganotin compounds, antifungal and antibacterial compositions containing same, and method of using same” (priority 1983, dated 1985)

Legend:
Escherichia coli = assay: Antibacterial activity, agar growth inhibition; assay type: cell-based; conditions: for growth inhibition: Gram-negative, 24 hours at 37° C.
Description: (§1) The agar was also needed with a 1:100 dilution of an 18-hour old culture of the desired bacterial species in sterile distilled water. The plates were incubated for 24 hours at 37° C. with each bacterial strain. Observations of bacterial growth inhibition were made following the appropriate incubation period.
(§2) A solvent control was included in all evaluations, as were growth controls for all bacteria species.
(§3) These compounds were tested for antibacterial activity in the same manner as the triorganotin 5-nitro-2-furoates of the present invention.
(§4) All of the bacteria tested were obtained from the culture collection of the Department of Biological Sciences, St. John's University.

Staphylococcus aureus = assay: Antibacterial activity, agar growth inhibition; assay type: cell-based; design: key to growth inhibition: -: no inhibition of growth; +: partial inhibition; 2+: complete inhibition; conditions: Gram-positive
Description: The antibacterial activity of Compounds A-E was investigated by means of incorporating the compounds into sterile tryptic soy agar (Difco) at levels of 100, 10, and 1 μg/ml. The agar was also […] with a 1:100 dilution of an 18-hour old culture of the desired bacterial species in sterile distilled water. The plates were incubated for 24 hours at 37° C. with each bacterial strain. Observations of bacterial growth inhibition were made following the appropriate incubation period.
as §2
Comparative compounds 1-5 above were employed for comparison purposes. These compounds were tested for antibacterial activity in the same manner as the triorganotin 5-nitro-2-furoates of the present invention.
as §4
The ability of Compound B to inhibit the growth of other Gram-positive bacteria, using the same test procedures as described for the antibacterial activity determined in Table III above, is illustrated in Table IV below.

[1] = test system: Trichophyton mentagrophytes (ATCC 9129); assay: Antifungal activity, agar plate growth inhibition; assay type: cell-based; conditions: 14 days
Description: (§5) Dilutions of the sterile solutions were prepared and added to liquified potato dextrose agar (Difco) to yield final concentrations of 100, 10 and 1 μg/ml. The agar, containing the appropriate organotin compound, was poured into sterile petri dishes and allowed to solidify over night. The agar surface was inoculated centrally with a 2 mm^2 portion of the growth from a ten-day-old culture of each fungus of the group consisting of Aspergillus niger, Chaetomium globosum, Cladosporium carpophilum, Fusarium moniliforme, Myrotheium verrucaria, Penicillium notatum, Rhizopus stolonifer, Trichoderma viride and Trichophyton mentagrophytes, or from a two-day-old culture of Saccharomyces cerevisiae. Inoculated plates were incubated for 14 days and observations of growth inhibition were made by measuring the diameters of the colonies present on the agar surface.
(§6) A solvent was included in all evaluations, as were growth controls for all fungal species.
(§7) The following compounds were tested for comparative purposes: [drawing 6] These compounds were tested for antifungal activity in the same manner as the triorganotin 5-nitro-2-furoates of the present invention.

[2] = test system: Rhizopus stolonifer (ATCC 10404); assay: Antifungal activity, agar plate growth inhibition; assay type: cell-based; conditions: 14 days
Description: as §5, §6, §7

[3] = test system: Aspergillus niger (ATCC 12845); assay: Antifungal activity, agar plate growth inhibition; assay type: cell-based; conditions: 14 days
Description: as §5, §6, §7

[4] = test system: Fusarium moniliforme (ATCC 10052); assay: Antifungal activity, agar plate growth inhibition; assay type: cell-based; conditions: 14 days
Description: as §5, §6, §7

[5] = test system: Chaetomium globosum (ATCC 6205); assay: Antifungal activity, agar plate growth inhibition; assay type: cell-based; conditions: 14 days
Description: as §5, §6, §7

[6] = test system: Myrothecium verrucaria (ATCC 9095); assay: Antifungal activity, agar plate growth inhibition; assay type: cell-based; conditions: 14 days
Description: as §5, §6, §7

[7] = test system: Saccharomyces cerevisiae (ATCC 9896); assay: Antifungal activity, agar plate growth inhibition; assay type: cell-based; conditions: 14 days
Description: as §5, §6, §7

[8] = test system: Penicillium notatum (ATCC 9179); assay: Antifungal activity, agar plate growth inhibition; assay type: cell-based; conditions: 14 days
Description: as §5, §6, §7

[9] = test system: Trichoderma viride (ATCC 8678); assay: Antifungal activity, agar plate growth inhibition; assay type: cell-based; conditions: 14 days
Description: as §5, §6, §7

[10] = test system: Cladosporium carpophilium (ATCC 12117); assay: Antifungal activity, agar plate growth inhibition; assay type: cell-based, Cladosporium carpophilum; conditions: 14 days
Description: as §5, §6, §7

Pseudomonas aeruginosa = assay: Antibacterial activity, agar growth inhibition; assay type: cell-based; conditions: Gram-negative, 24 hours at 37° C.
Description: as §1, §2, §3, §4

Compound | growth inhibition ([1]; 1 μg/ml) | growth inhibition ([1]; 10 μg/ml) | growth inhibition ([1]; 100 μg/ml) | growth inhibition ([2]; 1 μg/ml) | growth inhibition ([2]; 10 μg/ml) | growth inhibition ([2]; 100 μg/ml) | growth inhibition ([3]; 1 μg/ml) | growth inhibition ([3]; 10 μg/ml) | growth inhibition ([3]; 100 μg/ml) | growth inhibition ([4]; 1 μg/ml) | growth inhibition ([4]; 10 μg/ml) | growth inhibition ([4]; 100 μg/ml) | growth inhibition ([5]; 1 μg/ml) | growth inhibition ([5]; 10 μg/ml) | growth inhibition ([5]; 100 μg/ml) | growth inhibition ([6]; 1 μg/ml) | growth inhibition ([6]; 10 μg/ml) | growth inhibition ([6]; 100 μg/ml) | growth inhibition ([7]; 1 μg/ml) | growth inhibition ([7]; 10 μg/ml) | also measured
N#CN=C(Nc1ccccc1)[O][Sn]([c]1ccccc1)([c]1ccccc1)[c]1ccccc1 [Comparative Compound 3, N--phenyl, N'--cyano-O--(triphenylstannyl)-isourea, reference compound] | + | + | 2+ | - | + | + | - | + | + | - | + | + | - | + | + | + | + | + | - | - | growth inhibition (in words) (Escherichia coli; 100 μg/ml): inactive; growth inhibition (Escherichia coli; 1 μg/ml): -; growth inhibition (Escherichia coli; 10 μg/ml): -; growth inhibition (Escherichia coli; 100 μg/ml): -; minimum concentration for complete growth inhibition (Staphylococcus aureus): 100 µg/mL; growth inhibition (Staphylococcus aureus; 1 μg/ml, 24 hours at 37° C.): -; growth inhibition ([7]; 100 μg/ml): 2+; growth inhibition ([8]; 1 μg/ml): -; growth inhibition ([8]; 10 μg/ml): +; growth inhibition ([8]; 100 μg/ml): +; growth inhibition ([9]; 1 μg/ml): -; growth inhibition ([9]; 10 μg/ml): -; growth inhibition ([9]; 100 μg/ml): +; growth inhibition ([10]; 1 μg/ml): -; growth inhibition ([10]; 10 μg/ml): +; growth inhibition ([10]; 100 μg/ml): +
Tricyclohexyltin 5-nitro-2-furoate [Compound C] | + | + | + | - | + | + | + | + | + | + | + | + | + | + | + | + | + | + | - | - | growth inhibition (Escherichia coli; 1 μg/ml): -; growth inhibition (Escherichia coli; 10 μg/ml): -; growth inhibition (Escherichia coli; 100 μg/ml): -; growth inhibition (Pseudomonas aeruginosa; 1 μg/ml): -; growth inhibition (Pseudomonas aeruginosa; 10 μg/ml): -; growth inhibition (Pseudomonas aeruginosa; 100 μg/ml): -; growth inhibition ([7]; 100 μg/ml): -; growth inhibition ([8]; 1 μg/ml): +; growth inhibition ([8]; 10 μg/ml): +; growth inhibition ([8]; 100 μg/ml): 2+; growth inhibition ([9]; 1 μg/ml): +; growth inhibition ([9]; 10 μg/ml): +; growth inhibition ([9]; 100 μg/ml): +; growth inhibition ([10]; 1 μg/ml): +; growth inhibition ([10]; 10 μg/ml): +; growth inhibition ([10]; 100 μg/ml): +
N#CN=C(Nc1ccccc1)[S][Sn]([c]1ccccc1)([c]1ccccc1)[c]1ccccc1 [compound 2, N--phenyl, N'--cyano-S--(triphenylstannyl)-isothiourea, reference compound] | - | + | + | - | + | 2+ | - | + | 2+ | - | + | + | - | + | + | - | + | + | - | - | growth inhibition (in words) (Escherichia coli; 100 μg/ml): partially; growth inhibition (Escherichia coli; 1 μg/ml): -; growth inhibition (Escherichia coli; 10 μg/ml): -; growth inhibition ([7]; 100 μg/ml): -; growth inhibition ([8]; 1 μg/ml): -; growth inhibition ([8]; 10 μg/ml): +; growth inhibition ([8]; 100 μg/ml): +; growth inhibition ([9]; 1 μg/ml): -; growth inhibition ([9]; 10 μg/ml): -; growth inhibition ([9]; 100 μg/ml): +; growth inhibition ([10]; 1 μg/ml): -; growth inhibition ([10]; 10 μg/ml): -; growth inhibition ([10]; 100 μg/ml): -
N--nitrophenyl, N--(triphenylstannyl) cyanamide [compound 1, reference compound] | + | + | 2+ | + | + | + | + | + | + | + | + | + | + | + | 2+ | + | + | + | - | - | growth inhibition ([7]; 100 μg/ml): +; growth inhibition ([8]; 1 μg/ml): +; growth inhibition ([8]; 10 μg/ml): +; growth inhibition ([8]; 100 μg/ml): +; growth inhibition ([9]; 1 μg/ml): -; growth inhibition ([9]; 10 μg/ml): +; growth inhibition ([9]; 100 μg/ml): +; growth inhibition ([10]; 1 μg/ml): +; growth inhibition ([10]; 10 μg/ml): +; growth inhibition ([10]; 100 μg/ml): +
